{"source": "patent US20240041042A1", "about": "“1-(PYRIDYL)-5-AZINYLPYRAZOLE DERIVATIVES, AND THEIR USE FOR CONTROL OF UNDESIRED PLANT GROWTH” (Bayer Aktiengesellschaft, priority 2020, published 2024)", "format_in_all_cases": "in vivo", "key": {"[1]": {"system": "Setaria viridis (SETVI)", "test": "Pre-emergence herbicidal action against SETVI", "details": "dosage 320 g/ha", "in_short": "(§1)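 Pre-emergence soil-surface spray of compound, formulated as wettable powder or emulsion concentrate, in aqueous suspension or emulsion with 0.5% additive (600 l/ha; rate 320 g/ha or less). Activity rated visually after roughly 3 weeks in the greenhouse as a percentage of untreated controls, 0% meaning no difference.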"}, "[2]": {"system": "Glycine max (GLXMA)", "details": "pre-emergence, 80 g/ha, crop plant compatibility, in comparison to untreated controls", "in_short": "(§2)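 Scoring: visual, % of untreated control, about 3 weeks after a pre-emergence application to the soil surface. Application used WP or EC formulations diluted in water with 0.5% additive at 600 l/ha; dosage levels are marked by suffixes a, b and c.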"}, "[3]": {"system": "Oryza sativa (ORYSA)", "details": "pre-emergence, crop plant compatibility, in comparison to untreated controls", "in_short": "as §2"}, "[4]": {"system": "Triticum aestivum (TRZAS)", "details": "pre-emergence, crop plant compatibility, in comparison to untreated controls", "in_short": "as §2"}, "[5]": {"system": "Zea mays (ZEAMX)", "details": "pre-emergence, crop plant compatibility, in comparison to untreated controls", "in_short": "as §2"}, "[6]": {"system": "Amaranthus retroflexus (AMARE)", "test": "Post-emergence herbicidal action against AMARE", "in_short": "(§3)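 Post-emergence greenhouse spray, one-leaf stage, 600 l/ha water plus 0.5% additive; WP or EC formulations; application rates 320 g/ha or lower. Visual % damage vs untreated controls at ~3 weeks.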"}, "[7]": {"system": "Viola tricolor (VIOTR)", "test": "Post-emergence herbicidal action against VIOTR", "details": "320 g/ha", "in_short": "as §3"}, "[8]": {"system": "Oryza sativa (ORYSA)", "details": "crop plant compatibility", "in_short": "(§4)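 Effects were read visually as % versus untreated controls (0% = no effect, 100% = death) about 3 weeks post-treatment. Application was a post-emergence spray at the one-leaf stage of WP/EC formulations with 0.5% additive at 600 l/ha. Different dosages are denoted a, b and c.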"}, "[9]": {"system": "Zea mays (ZEAMX)", "details": "for Post-emergence action against ZEAMX in %: crop plant compatibility, effect vs untreated controls", "in_short": "as §4"}, "[10]": {"system": "Amaranthus retroflexus (AMARE)", "test": "Pre-emergence herbicidal action against AMARE", "details": "320 g/ha, visual scoring after about 3 weeks vs untreated controls", "in_short": "as §1"}, "[11]": {"system": "Viola tricolor (VIOTR)", "test": "Pre-emergence herbicidal action against VIOTR", "in_short": "as §1"}, "[12]": {"system": "Triticum aestivum (TRZAS)", "details": "crop plant compatibility, effect vs untreated controls", "in_short": "as §4"}, "[13]": {"system": "Alopecurus myosuroides (ALOMY)", "test": "Pre-emergence herbicidal action against ALOMY", "details": "320 g/ha; scored visually after about 3 weeks; 100% = plants have died", "in_short": "as §1"}, "[14]": {"system": "Digitaria sanguinalis (DIGSA)", "test": "Pre-emergence herbicidal action against DIGSA", "details": "dosage 320 g/ha", "in_short": "as §1"}, "[15]": {"system": "Echinochloa crus-galli (ECHCG)", "test": "Pre-emergence herbicidal action against ECHCG", "details": "dosage 320 g/ha", "in_short": "as §1"}, "[16]": {"system": "Matricaria inodora (MATIN)", "test": "Pre-emergence herbicidal action against MATIN", "details": "dosage 320 g/ha", "in_short": "as §1"}, "[17]": {"system": "Pharbitis purpurea (PHBPU)", "test": "Pre-emergence herbicidal action against PHBPU", "details": "dosage 320 g/ha", "in_short": "as §1"}, "[18]": {"system": "Polygonum convolvulus (POLCO)", "test": "Pre-emergence herbicidal action against POLCO", "in_short": "as §1"}, "[19]": {"system": "Alopecurus myosuroides (ALOMY)", "test": "Post-emergence herbicidal action against ALOMY", "details": "320 g/ha, visual rating about 3 weeks after treatment vs untreated controls (100% = plants have died, 0% = like control plants)", "in_short": "as §3"}, "[20]": {"system": "Echinochloa crus-galli (ECHCG)", "test": "Post-emergence herbicidal action against ECHCG", "details": "dosage 320 g/ha", "in_short": "as §3"}, "[21]": {"system": "Matricaria inodora (MATIN)", "test": "Post-emergence herbicidal action against MATIN", "details": "dosage 320 g/ha", "in_short": "as §3"}, "[22]": {"system": "Pharbitis purpurea (PHBPU)", "test": "Post-emergence herbicidal action against PHBPU", "in_short": "as §3"}, "[23]": {"system": "Verconica persica (VERPE)", "test": "Post-emergence herbicidal action against VERPE", "details": "320 g/ha, VERPE", "in_short": "as §3"}, "[24]": {"details": "80 g/ha, visual rating about 3 weeks after treatment vs untreated controls (100% = plants have died, 0% = like control plants)"}, "[25]": {"details": "320 g/ha, visual rating about 3 weeks after treatment"}, "[26]": {"details": "80 g/ha, effect in comparison to untreated controls"}, "[27]": {"details": "320 g/ha, effect in comparison to untreated controls"}}, "note": "Like-named read-outs stand apart in the source and are kept apart here.", "data": [{"compound": "COC(=O)CCOC(=O)COc1nn(-c2ccnc(F)c2)c(-c2ccc(F)nc2)c1Br", "note": "[III-27]", "values": [{"measurement": "Pre-emergence action against SETVI in %", "setting": "[1]", "value": 90, "unit": "%"}, {"measurement": "Pre-emergence action against GLXMA in %", "setting": "[2]", "value": 0, "unit": "%"}, {"measurement": "Pre-emergence action against ORYSA in %", "setting": "[3]; 80 g/ha", "value": 0, "unit": "%"}, {"measurement": "Pre-emergence action against ORYSA in %", "setting": "[3]; 320 g/ha", "value": 20, "unit": "%"}, {"measurement": "Pre-emergence action against TRZAS in %", "setting": "[4]; 80 g/ha", "value": 20, "unit": "%"}, {"measurement": "Pre-emergence action against ZEAMX in %", "setting": "[5]; 80 g/ha", "value": 10, "unit": "%"}, {"measurement": "Pre-emergence action against ZEAMX in %", "setting": "[5]; 320 g/ha", "value": 20, "unit": "%"}, {"measurement": "Post-emergence action against AMARE in %", "setting": "[6]; [24]", "value": 80, "unit": "%"}, {"measurement": "Post-emergence action against AMARE in %", "setting": "[6]; [25]", "value": 80, "unit": "%"}, {"measurement": "Post-emergence action against VIOTR in %", "setting": "[7]", "value": 80, "unit": "%"}, {"measurement": "Post-emergence action against ORYSA in %", "setting": "[8]; [26]", "value": 0, "unit": "%"}, {"measurement": "Post-emergence action against ORYSA in %", "setting": "[8]; [27]", "value": 0, "unit": "%"}, {"measurement": "Post-emergence action against ZEAMX in %", "setting": "[9]; 80 g/ha", "value": 10, "unit": "%"}, {"measurement": "Post-emergence action against ZEAMX in %", "setting": "[9]; 320 g/ha", "value": 10, "unit": "%"}]}, {"compound": "O=C(O)COc1nn(-c2ccncc2)c(-c2ccc(F)nc2)c1Br", "note": "[III-09]", "values": [{"measurement": "Pre-emergence action against AMARE in %", "setting": "[10]", "value": 80, "unit": "%"}, {"measurement": "Pre-emergence action against VIOTR in %", "setting": "[11]; 320 g/ha, Viola tricolor", "value": 80, "unit": "%"}, {"measurement": "Pre-emergence action against GLXMA in %", "setting": "[2]", "value": 20, "unit": "%"}, {"measurement": "Pre-emergence action against ORYSA in %", "setting": "[3]; 80 g/ha", "value": 0, "unit": "%"}, {"measurement": "Pre-emergence action against ORYSA in %", "setting": "[3]; 320 g/ha", "value": 0, "unit": "%"}, {"measurement": "Pre-emergence action against TRZAS in %", "setting": "[4]; 80 g/ha", "value": 0, "unit": "%"}, {"measurement": "Pre-emergence action against TRZAS in %", "setting": "[4]; 320 g/ha", "value": 0, "unit": "%"}, {"measurement": "Pre-emergence action against ZEAMX in %", "setting": "[5]; 80 g/ha", "value": 0, "unit": "%"}, {"measurement": "Pre-emergence action against ZEAMX in %", "setting": "[5]; 320 g/ha", "value": 0, "unit": "%"}, {"measurement": "Post-emergence action against AMARE in %", "setting": "[6]; [25]", "value": 80, "unit": "%"}, {"measurement": "Post-emergence action against ORYSA in %", "setting": "[8]; [26]", "value": 0, "unit": "%"}, {"measurement": "Post-emergence action against ORYSA in %", "setting": "[8]; [27]", "value": 0, "unit": "%"}, {"measurement": "Post-emergence action against TRZAS in %", "setting": "[12]; 80 g/ha", "value": 0, "unit": "%"}, {"measurement": "Post-emergence action against TRZAS in %", "setting": "[12]; 320 g/ha", "value": 0, "unit": "%"}, {"measurement": "Post-emergence action against ZEAMX in %", "setting": "[9]; 80 g/ha", "value": 10, "unit": "%"}, {"measurement": "Post-emergence action against ZEAMX in %", "setting": "[9]; 320 g/ha", "value": 10, "unit": "%"}]}, {"compound": "COC(=O)COc1nn(-c2ncccc2C(F)(F)F)c(-c2cncc(F)c2)c1Br", "note": "[Example I-206]", "values": [{"measurement": "Pre-emergence action against ALOMY", "setting": "[13]", "value": 80, "unit": "%"}, {"measurement": "Pre-emergence action against AMARE in %", "setting": "[10]", "value": 90, "unit": "%"}, {"measurement": "Pre-emergence action against DIGSA in %", "setting": "[14]", "value": 90, "unit": "%"}, {"measurement": "Pre-emergence action against ECHCG in %", "setting": "[15]", "value": 80, "unit": "%"}, {"measurement": "Pre-emergence action against MATIN in %", "setting": "[16]", "value": 90, "unit": "%"}, {"measurement": "Pre-emergence action against PHBPU in %", "setting": "[17]", "value": 80, "unit": "%"}, {"measurement": "Pre-emergence action against POLCO in %", "setting": "[18]; dosage 80 g/ha", "value": 80, "unit": "%"}, {"measurement": "Pre-emergence action against POLCO in %", "setting": "[18]; dosage 320 g/ha", "value": 80, "unit": "%"}, {"measurement": "Pre-emergence action against VIOTR in %", "setting": "[11]; 320 g/ha, Viola tricolor", "value": 100, "unit": "%"}, {"measurement": "Pre-emergence action against VIOTR in %", "setting": "[11]; dosage 80 g/ha", "value": 90, "unit": "%"}, {"measurement": "Pre-emergence action against GLXMA in %", "setting": "[2]", "value": 10, "unit": "%"}, {"measurement": "Pre-emergence action against TRZAS in %", "setting": "[4]; 80 g/ha", "value": 0, "unit": "%"}, {"measurement": "Post-emergence action against ALOMY in %", "setting": "[19]", "value": 80, "unit": "%"}, {"measurement": "Post-emergence action against ECHCG in %", "setting": "[20]", "value": 80, "unit": "%"}, {"measurement": "Post-emergence action against MATIN in %", "setting": "[21]", "value": 80, "unit": "%"}, {"measurement": "Post-emergence action against PHBPU in %", "setting": "[22]; dosage 320 g/ha", "value": 90, "unit": "%"}, {"measurement": "Post-emergence action against VERPE in %", "setting": "[23]", "value": 80, "unit": "%"}, {"measurement": "Post-emergence action against VIOTR in %", "setting": "[7]", "value": 80, "unit": "%"}]}, {"compound": "COC(=O)CCOC(=O)COc1nn(-c2ccnc(Cl)c2)c(-c2ccc(F)nc2)c1Br", "note": "[III-19]", "values": [{"measurement": "Pre-emergence action against AMARE in %", "setting": "[10]", "value": 80, "unit": "%"}, {"measurement": "Pre-emergence action against GLXMA in %", "setting": "[2]", "value": 0, "unit": "%"}, {"measurement": "Pre-emergence action against ORYSA in %", "setting": "[3]; 80 g/ha", "value": 0, "unit": "%"}, {"measurement": "Pre-emergence action against ORYSA in %", "setting": "[3]; 320 g/ha", "value": 20, "unit": "%"}, {"measurement": "Pre-emergence action against TRZAS in %", "setting": "[4]; 80 g/ha", "value": 20, "unit": "%"}, {"measurement": "Post-emergence action against AMARE in %", "setting": "[6]; [24]", "value": 80, "unit": "%"}, {"measurement": "Post-emergence action against PHBPU in %", "setting": "[22]; dosage 80 g/ha", "value": 80, "unit": "%"}, {"measurement": "Post-emergence action against ORYSA in %", "setting": "[8]; 20 g/ha, effect vs untreated controls", "value": 0, "unit": "%"}, {"measurement": "Post-emergence action against ORYSA in %", "setting": "[8]; [26]", "value": 0, "unit": "%"}, {"measurement": "Post-emergence action against TRZAS in %", "setting": "[12]; 20 g/ha", "value": 20, "unit": "%"}, {"measurement": "Post-emergence action against ZEAMX in % (crop plant compatibility)", "setting": "[9]; 20 g/ha, ZEAMX, effect in comparison to untreated controls", "value": 0, "unit": "%"}]}]}
